How the values were obtained:
[1] = Partition of marker compound between water and heptane phases; format: physicochemical; settings: for Initial Fluorescence Intensity in Water Phase / Fluorescence Intensity in Water Phase After Partition: heptane, excitation 540 nm, emission 590 nm; for Initial Fluorescence Intensity in Water Phase: 10 ppb marker; for Fluorescence Intensity in Water Phase After Partition: not background corrected; for Partition Ratio (Kd): water/heptane, corrected for background
Description: (§1) In this Example, the separation/partition of the marker compound between water and fuel phases was measured. The procedure for this Example included: measure fluorescence of 10 grams of water phase with and without marker compound present to determine background fluorescence. Then, 10 grams of hydrocarbon including 10 ppb of marker compound was added to the water and gently agitated for 1 minute. After mixing, the sample was allowed to completely separate into two phases. Thereafter, the fluorescence of the water phase was re-measured. Since the marker concentration is directly proportional to fluorescence intensity (at 10 ppb and within a range of interest), the Partition Ratio can be calculated from the initial and final tracer fluorescence intensities (corrected for any background fluorescence) from the water phase.
(§2) For this Example, Rhodamine B, Rhodamine 101, and Fluorescein marker compounds were used. For Rhodamine 101 and Rhodamine B measurements, excitation wavelength was 540 nm and emission wavelength was 590 nm. For Fluorescein measurements, excitation wavelength was 470 nm and emission wavelength was 515 nm.

[2] = Partition of marker compound between water and gasoline phases; format: physicochemical; settings: for Initial Fluorescence Intensity in Water Phase / Fluorescence Intensity in Water Phase After Partition: gasoline, excitation 540 nm, emission 590 nm; for Initial Fluorescence Intensity in Water Phase: 10 ppb marker; for Fluorescence Intensity in Water Phase After Partition: not background corrected; for Partition Ratio (Kd): water/gasoline, corrected for background
Description: as §1, §2

| Initial Fluorescence Intensity in Water Phase [1] [arb units] | Fluorescence Intensity in Water Phase After Partition [1] [arb units] | Partition Ratio (Kd) [1] | Initial Fluorescence Intensity in Water Phase [2] [arb units] | Fluorescence Intensity in Water Phase After Partition [2] [arb units] | Partition Ratio (Kd) [2] | SMILES |
| --- | --- | --- | --- | --- | --- | --- |
| 73 | 20 | 0.35 | 73.5 | 12.5 | 0.20 | O=C([O-])c1ccccc1C1=c2cc3c4c(c2Oc2c1cc1c5c2CCCN5CCC1)CCC[N+]=4CCC3 [Rhodamine 101] |
| 75 | 21.5 | 0.38 | 71.5 | 13 | 0.21 | CCN(CC)c1ccc2c(-c3ccccc3C(=O)O)c3ccc(=[N+](CC)CC)cc-3oc2c1.[Cl-] [Rhodamine B] |
